# Active and inactive are the calls of the source.
# How the values were obtained:
# [1] = target: T1, Heat shock factor protein 1 (Mus musculus, UniProt P38532); test: enhancement of HSF1-driven luciferase signal – cell-based, NIH3T3, luminescence, dose retest, confirmation (AID 435004); type: functional;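 note: stress induced by proteasome inhibitor MG132 added 30 min after compound; luciferase reporter driven by HSF1 response element in NIH3T3 cells; actives raise luminescence as potentiators of the MG132 stress response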
# T1 sequence (P38532 whole entry): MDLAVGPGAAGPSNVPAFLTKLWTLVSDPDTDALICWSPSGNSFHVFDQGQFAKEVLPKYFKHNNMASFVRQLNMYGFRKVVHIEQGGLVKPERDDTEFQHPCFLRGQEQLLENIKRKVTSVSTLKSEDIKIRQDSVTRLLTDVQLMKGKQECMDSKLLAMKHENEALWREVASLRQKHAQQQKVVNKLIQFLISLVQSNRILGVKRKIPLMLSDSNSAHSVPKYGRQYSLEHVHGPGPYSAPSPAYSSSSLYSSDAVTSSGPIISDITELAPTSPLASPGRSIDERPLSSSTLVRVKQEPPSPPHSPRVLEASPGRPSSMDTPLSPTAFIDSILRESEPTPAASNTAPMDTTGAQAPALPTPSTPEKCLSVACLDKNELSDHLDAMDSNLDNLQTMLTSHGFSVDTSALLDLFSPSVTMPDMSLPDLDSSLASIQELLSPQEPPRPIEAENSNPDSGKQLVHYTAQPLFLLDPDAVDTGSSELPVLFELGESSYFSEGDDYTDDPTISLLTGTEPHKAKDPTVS
# [2] = NIH-3T3 fibroblast cytotoxicity, dose response, cytotoxicity control, cell-based, fluorescence, Alamar Blue, secondary assay (AID 2327); type: functional;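 note: NIH-3T3 mouse fibroblasts cultured with fluconazole at 8 µg/mL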
# [3] = fluconazole-exposed Candida albicans growth modulators – fluorescence, retest, confirmation (AID 2467); type: functional, cell-based
# [4] = target: T2, RNA-binding protein pos-1 (Caenorhabditis elegans, UniProt G5EF15); test: disruptors of C. elegans POS-1 RNA interaction – biochemical, fluorescence polarization, dose response (AID 1964);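 note: purified POS-1 fused to maltose binding protein made in E. coli; potency of compounds blocking POS-1 binding to fluorescent RNA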
# T2 sequence (G5EF15 whole entry): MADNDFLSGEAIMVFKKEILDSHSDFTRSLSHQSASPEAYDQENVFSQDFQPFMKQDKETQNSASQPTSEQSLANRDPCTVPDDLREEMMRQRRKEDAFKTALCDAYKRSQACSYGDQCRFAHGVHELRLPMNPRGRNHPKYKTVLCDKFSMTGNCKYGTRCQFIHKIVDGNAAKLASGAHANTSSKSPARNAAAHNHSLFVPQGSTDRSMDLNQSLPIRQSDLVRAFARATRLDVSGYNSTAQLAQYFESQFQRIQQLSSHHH
# [5] = target: T3, Zinc finger protein mex-5 (Caenorhabditis elegans, UniProt Q9XUB2); test: potency of MEX-5 RNA-binding blockers – biochemical, C. elegans, fluorescence polarization, dose response (AID 1960)
# T3 sequence (Q9XUB2 whole entry): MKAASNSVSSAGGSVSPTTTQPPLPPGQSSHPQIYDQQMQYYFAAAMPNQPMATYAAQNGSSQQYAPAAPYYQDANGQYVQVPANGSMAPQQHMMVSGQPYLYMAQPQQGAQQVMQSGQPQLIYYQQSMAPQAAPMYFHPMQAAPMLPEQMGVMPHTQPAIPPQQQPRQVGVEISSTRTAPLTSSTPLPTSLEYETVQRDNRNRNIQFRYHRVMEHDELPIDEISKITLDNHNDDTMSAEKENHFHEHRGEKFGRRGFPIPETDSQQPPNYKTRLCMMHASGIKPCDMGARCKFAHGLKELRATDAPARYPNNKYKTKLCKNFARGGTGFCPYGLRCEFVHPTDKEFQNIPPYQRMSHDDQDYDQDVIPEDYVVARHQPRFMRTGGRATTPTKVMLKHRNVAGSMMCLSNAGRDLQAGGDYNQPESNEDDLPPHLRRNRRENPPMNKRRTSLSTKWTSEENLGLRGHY
# [6] = target: T4, Polyadenylate-binding protein 1 (Homo sapiens, UniProt P11940); test: MLLE binding blockers, Cy5 peptide tracer – biochemical, fluorescence polarization, Cy5-PAM2 peptide, secondary, miRNA deadenylation inhibitor project, dose response (AID 602260); type: functional; settings: read-out: IC50_Mean
# [7] = target: T4, Polyadenylate-binding protein 1; test: MLLE domain peptide-binding blockers, IC50 – biochemical, fluorescence polarization, FITC-PAM2 peptide, dose response (AID 602259); type: functional; settings: read-out: IC50_Mean
# Cytochrome P450 2C9 = Cytochrome P450 2C9 (Homo sapiens, UniProt P11712)
# Large T antigen = Large T antigen (Simian virus 40, UniProt P03070); type: functional, Betapolyomavirus macacae;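 note: Confirmatory-stage PubChem screen for compounds that inhibit SV40 T antigen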
# [8] = target: T5, Rac GTPase-activating protein 1 (Homo sapiens, UniProt Q9H0H5); test: blockers of MgcRacGAP-driven Rac1 GTP hydrolysis – biochemical, ADP Hunter fluorescence, primary and confirmatory, confirmation (AID 624330); type: functional
# T5 sequence (Q9H0H5 whole entry): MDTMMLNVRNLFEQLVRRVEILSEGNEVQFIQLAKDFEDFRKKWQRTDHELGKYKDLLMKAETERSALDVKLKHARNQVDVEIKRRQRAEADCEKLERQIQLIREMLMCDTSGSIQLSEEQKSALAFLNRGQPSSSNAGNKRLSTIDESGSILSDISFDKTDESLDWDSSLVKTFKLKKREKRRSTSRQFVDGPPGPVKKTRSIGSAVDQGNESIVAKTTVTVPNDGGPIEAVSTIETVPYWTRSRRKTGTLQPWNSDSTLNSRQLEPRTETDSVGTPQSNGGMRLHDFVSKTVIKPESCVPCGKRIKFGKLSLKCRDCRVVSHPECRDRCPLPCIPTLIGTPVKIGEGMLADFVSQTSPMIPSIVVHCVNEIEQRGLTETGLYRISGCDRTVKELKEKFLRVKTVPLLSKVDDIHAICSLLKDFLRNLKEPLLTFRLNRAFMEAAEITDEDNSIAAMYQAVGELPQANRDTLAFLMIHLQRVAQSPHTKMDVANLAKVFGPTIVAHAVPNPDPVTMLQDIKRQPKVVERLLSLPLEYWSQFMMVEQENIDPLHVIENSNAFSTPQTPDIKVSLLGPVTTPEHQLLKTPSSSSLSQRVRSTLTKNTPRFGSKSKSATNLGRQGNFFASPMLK
# cells [9] = type: functional, cell-based
# cells [10] = type: functional, cell-based; remark: listed apart in the source
# Cytochrome P450 1A2 = target: T6, Cytochrome P450 1A2 (Homo sapiens, UniProt P05177);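 note: PubChem cytochrome P450 panel assay, CYP1A2 panel member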
# T6 sequence (P05177 whole entry): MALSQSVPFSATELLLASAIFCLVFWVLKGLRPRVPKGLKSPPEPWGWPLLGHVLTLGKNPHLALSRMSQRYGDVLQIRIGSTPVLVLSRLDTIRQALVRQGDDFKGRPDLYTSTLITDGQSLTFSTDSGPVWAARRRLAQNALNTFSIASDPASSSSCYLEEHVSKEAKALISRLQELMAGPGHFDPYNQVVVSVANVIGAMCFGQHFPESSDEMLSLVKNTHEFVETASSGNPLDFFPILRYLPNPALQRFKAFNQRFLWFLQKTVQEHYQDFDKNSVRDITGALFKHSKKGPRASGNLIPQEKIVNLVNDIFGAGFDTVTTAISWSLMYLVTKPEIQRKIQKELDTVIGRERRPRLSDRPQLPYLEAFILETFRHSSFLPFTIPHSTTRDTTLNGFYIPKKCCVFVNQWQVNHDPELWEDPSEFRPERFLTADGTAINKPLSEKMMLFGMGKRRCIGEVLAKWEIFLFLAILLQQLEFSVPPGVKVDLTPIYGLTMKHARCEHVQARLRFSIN
# [11] = viability of uninfected HEp-2 cells – cell-based, HTS, cytotoxicity control for RSV inhibitor project, dose response (AID 2410); type: functional; settings: human respiratory syncytial virus
# Cytochrome P450 3A4 = Cytochrome P450 3A4 (Homo sapiens, UniProt P08684);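 note: CYP3A4 tested as one member of a cytochrome P450 panel screen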
# INS1 = test: INS-1E survival protection against cytokine death – cell-based, luminescence, retest, dose response (AID 449756); type: functional; settings: Rattus norvegicus, INS1;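 note: cell death triggered by IL-1 beta plus TNF-alpha plus IFN-gamma mixture; protective hits raise ATP signal compared with cytokine alone wells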
# Cytochrome P450 2C19 = Cytochrome P450 2C19 (Homo sapiens, UniProt P33261); test: Cytochrome panel assay with activity outcomes. Panel member name: p450-cyp2c19 Compounds with AC50 equal or less than 10 uM are considered active; type: functional
# Chain of Cytochrome P450 2C19 (P33261 whole entry): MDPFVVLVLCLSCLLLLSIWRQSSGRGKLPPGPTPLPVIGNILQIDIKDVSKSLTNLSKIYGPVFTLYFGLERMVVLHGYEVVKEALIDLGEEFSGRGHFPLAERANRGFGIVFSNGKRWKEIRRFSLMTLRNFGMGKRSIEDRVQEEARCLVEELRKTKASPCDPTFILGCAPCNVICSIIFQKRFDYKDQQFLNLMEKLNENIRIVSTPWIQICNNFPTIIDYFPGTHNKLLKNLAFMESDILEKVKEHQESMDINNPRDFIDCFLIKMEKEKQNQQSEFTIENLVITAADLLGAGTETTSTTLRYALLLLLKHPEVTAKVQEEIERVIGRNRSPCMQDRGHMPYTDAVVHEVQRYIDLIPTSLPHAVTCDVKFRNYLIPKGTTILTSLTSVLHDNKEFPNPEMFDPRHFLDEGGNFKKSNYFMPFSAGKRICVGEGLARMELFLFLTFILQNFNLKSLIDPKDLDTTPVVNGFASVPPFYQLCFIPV
# T4 sequence (P11940 whole entry, the tested form may be a part): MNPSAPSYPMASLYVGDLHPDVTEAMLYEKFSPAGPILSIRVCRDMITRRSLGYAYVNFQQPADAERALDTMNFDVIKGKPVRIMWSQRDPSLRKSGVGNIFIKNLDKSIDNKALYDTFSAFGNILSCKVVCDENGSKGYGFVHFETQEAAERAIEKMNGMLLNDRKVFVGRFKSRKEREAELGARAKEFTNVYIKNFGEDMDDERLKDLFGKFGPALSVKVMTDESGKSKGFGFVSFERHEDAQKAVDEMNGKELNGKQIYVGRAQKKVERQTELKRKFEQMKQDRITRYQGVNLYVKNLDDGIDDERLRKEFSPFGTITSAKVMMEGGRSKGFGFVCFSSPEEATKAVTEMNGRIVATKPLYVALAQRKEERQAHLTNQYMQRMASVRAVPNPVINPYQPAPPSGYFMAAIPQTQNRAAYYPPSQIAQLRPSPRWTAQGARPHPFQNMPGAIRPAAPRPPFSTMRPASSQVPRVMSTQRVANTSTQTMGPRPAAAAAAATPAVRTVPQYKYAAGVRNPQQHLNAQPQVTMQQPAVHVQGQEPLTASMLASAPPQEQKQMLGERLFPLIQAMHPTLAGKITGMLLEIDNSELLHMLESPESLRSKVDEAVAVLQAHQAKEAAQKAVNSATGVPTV
# Chain of Cytochrome P450 2C9 (P11712 whole entry): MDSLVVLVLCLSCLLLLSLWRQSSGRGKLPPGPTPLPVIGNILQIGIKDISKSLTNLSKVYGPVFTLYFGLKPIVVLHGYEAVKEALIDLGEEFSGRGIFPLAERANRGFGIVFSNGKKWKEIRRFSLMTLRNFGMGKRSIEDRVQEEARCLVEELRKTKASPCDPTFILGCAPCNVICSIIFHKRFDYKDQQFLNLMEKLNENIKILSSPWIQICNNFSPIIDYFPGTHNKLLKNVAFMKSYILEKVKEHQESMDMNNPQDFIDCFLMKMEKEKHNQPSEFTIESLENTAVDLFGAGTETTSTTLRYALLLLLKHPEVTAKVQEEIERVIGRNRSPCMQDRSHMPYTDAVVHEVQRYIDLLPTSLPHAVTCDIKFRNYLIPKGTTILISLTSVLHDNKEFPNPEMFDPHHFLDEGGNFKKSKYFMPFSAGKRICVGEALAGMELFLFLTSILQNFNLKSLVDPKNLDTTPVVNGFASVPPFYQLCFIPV
# Chain of Large T antigen (P03070 whole entry): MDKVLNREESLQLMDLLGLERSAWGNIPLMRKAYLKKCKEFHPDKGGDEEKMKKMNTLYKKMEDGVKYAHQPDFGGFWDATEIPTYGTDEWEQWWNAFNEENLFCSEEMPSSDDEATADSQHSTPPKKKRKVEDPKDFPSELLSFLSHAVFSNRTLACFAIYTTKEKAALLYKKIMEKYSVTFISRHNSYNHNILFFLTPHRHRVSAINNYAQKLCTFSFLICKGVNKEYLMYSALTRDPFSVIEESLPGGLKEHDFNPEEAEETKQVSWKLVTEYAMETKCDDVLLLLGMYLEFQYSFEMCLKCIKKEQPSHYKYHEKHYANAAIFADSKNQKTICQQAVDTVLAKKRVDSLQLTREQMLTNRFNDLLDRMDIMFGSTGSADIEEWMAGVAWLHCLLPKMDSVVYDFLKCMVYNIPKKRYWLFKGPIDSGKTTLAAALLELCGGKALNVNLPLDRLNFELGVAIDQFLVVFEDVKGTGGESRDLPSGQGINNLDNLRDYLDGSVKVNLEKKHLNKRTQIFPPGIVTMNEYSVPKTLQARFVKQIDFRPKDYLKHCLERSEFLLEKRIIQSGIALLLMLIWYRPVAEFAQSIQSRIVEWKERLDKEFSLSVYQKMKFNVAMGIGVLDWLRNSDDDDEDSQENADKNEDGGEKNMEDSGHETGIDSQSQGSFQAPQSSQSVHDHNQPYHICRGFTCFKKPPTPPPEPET
# Chain of Cytochrome P450 3A4 (P08684 whole entry): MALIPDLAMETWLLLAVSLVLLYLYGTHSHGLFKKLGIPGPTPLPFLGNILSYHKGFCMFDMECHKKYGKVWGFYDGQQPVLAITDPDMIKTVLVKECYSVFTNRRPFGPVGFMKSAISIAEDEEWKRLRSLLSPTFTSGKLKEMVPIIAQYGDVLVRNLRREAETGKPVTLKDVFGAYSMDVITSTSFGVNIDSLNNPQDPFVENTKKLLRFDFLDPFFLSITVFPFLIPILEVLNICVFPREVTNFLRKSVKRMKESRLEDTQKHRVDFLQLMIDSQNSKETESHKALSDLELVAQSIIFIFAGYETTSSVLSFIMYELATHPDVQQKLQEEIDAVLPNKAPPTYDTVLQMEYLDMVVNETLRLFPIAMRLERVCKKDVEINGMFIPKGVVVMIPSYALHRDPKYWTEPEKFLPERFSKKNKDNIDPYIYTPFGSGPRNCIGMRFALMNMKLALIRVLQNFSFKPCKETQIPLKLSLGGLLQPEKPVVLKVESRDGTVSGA
smiles,measurement,setting,value
CCN(CC)S(=O)(=O)c1ccc(N2CCOCC2)c(NC(=O)c2cc3ccccc3oc2=O)c1,EC50,[1],> 260 µM (inactive)
O=C(COc1ccc2c(c1)CCC2)N1CCN(c2cccc(C(F)(F)F)c2)CC1,EC50,[2],> 160 µM (inactive)
same,EC50,[3],> 38 µM (not active)
O=C(C1=C(O)C(=O)N(Cc2cccnc2)C1c1cccc(O)c1)c1ccc2c(c1)OCCO2 (stereo not drawn),EC50,[1],> 260 µM (inactive)
COc1cc(C2Nc3ccc4ncccc4c3C3=C2C(=O)CCC3)cc(OC)c1OC (stereo not drawn),EC50,[1],29.3 µM (active)
CN(C)c1cc(-c2ccc([N+](=O)[O-])cc2)oc(=O)c1Cl,EC50,[4],49.5 µM (active)
same,EC50,[5],165 µM (inconclusive)
CN1C(=O)C(=CNc2ccc(N3CCOCC3)cc2)C(=O)N(C)C1=S,EC50,[4],> 300 µM (not active)
same,EC50,[5],> 300 µM (inconclusive)
Cc1c(NC(=S)NC(=O)c2cc3ccccc3o2)cccc1C(=O)O,IC50,[6],> 66 µM (inactive)
same,IC50,[7],> 66 µM (inactive)
O=S1(=O)N=C(Nc2ccc(N3CCOCC3)cc2)c2ccccc21,EC50,[2],> 160 µM (inactive)
same,EC50,[3],> 38 µM (not active)
Cc1ccc(C)n1CCN1CCN(CC(=O)Nc2cc(C(F)(F)F)ccc2Cl)CC1,AC50,Cytochrome P450 2C9,inconclusive
O=C(C[n+]1ccccc1)NN=Cc1ccc(O)cc1,IC50,Large T antigen,11.3 µM (active)
same,IC50,[8],75 µM (active)
CCN1C(=O)/C(=C2\Sc3ccccc3N2CC)OC1=S,IC50,[6],> 66 µM (inactive)
same,IC50,[7],> 66 µM (inactive)
COc1ccc(NC(=S)c2ccc(N(C)C)cc2)cc1,EC50,cells [9],145 µM (active)
same,EC50,[1],> 260 µM (inactive)
same,EC50,cells [10],> 350 µM (not active)
CN(C)c1ccc(-c2nc3cnccn3c2Nc2ccc3c(c2)OCCO3)cc1,IC50,Large T antigen,12 µM (active)
COc1ccc(/C=C2/SC(=O)N(CCNC(=O)C3COc4ccccc4O3)C2=O)cc1 (stereo not drawn),EC50,[1],> 260 µM (inactive)
S=C1N=C(c2ccccc2)NCN1c1ccc(Br)cc1,EC50,[1],236 µM (active)
CCCn1nc(C(=O)Nc2ccc(S(=O)(=O)Nc3nccs3)cc2)c2ccccc2c1=O,EC50,[4],> 150 µM (not active)
same,EC50,[5],27.8 µM (active)
Cc1oc(-c2ccoc2)nc1CN(CC1CCC(=O)N1)C(C)C (stereo not drawn),EC50,[1],> 260 µM (inactive)
O=C(Nc1ccc(N=Nc2ccccc2)c(NC(=O)C2CCCO2)c1)C1CCCO1 (stereo not drawn),EC50,[2],> 160 µM (inactive)
same,EC50,[3],> 38 µM (not active)
Cc1c(C(=O)Oc2ccc(-c3cnc4ccccc4n3)cc2)cccc1[N+](=O)[O-],IC50,Large T antigen,58.2 µM (active)
CCOc1ccc(Cc2nc(C)c(CC(=O)N3CCOCC3)c(O)n2)cc1,AC50,Cytochrome P450 2C9,inconclusive
CC(=O)NCCNc1ncncc1-c1ccccc1C,AC50,Cytochrome P450 1A2,25.1 µM (inconclusive)
same,AC50,Cytochrome P450 2C9,inconclusive
COC(=O)C1=COC(C)C2CN3CCc4c([nH]c5cc(OC)c(OC)cc45)C3CC12 (stereo not drawn),EC50,[4],15.5 µM (active)
same,EC50,[5],14.4 µM (active)
NC(=Nc1ccccc1C(F)(F)F)Nc1nc(O)c2c(n1)CCC2,CC50,[11],46.9 µM (active)
same,EC50,[1],> 260 µM (inactive)
COc1ccc2ccc(O)c(CN3CC=C(c4ccccc4)CC3)c2c1,EC50,[1],34.6 µM (active)
O=S(=O)(NCc1cc(-c2ccccc2Cl)no1)c1ccc(Cl)cc1,AC50,Cytochrome P450 2C9,inconclusive
same,AC50,Cytochrome P450 3A4,20 µM (inconclusive)
COC(=O)/C=C1\SC(NC(=O)c2ccc(C)cc2)=NC1=O,IC50,[6],> 66 µM (inactive)
same,IC50,[7],> 66 µM (inactive)
CNc1nc(-c2ccccc2)cc(C)c1S(C)(=O)=O,EC50,[1],> 260 µM (inactive)
O=Cc1ccc(OC(=O)c2cc(Cl)nc3ccccc23)cc1,IC50,[6],> 66 µM (inactive)
same,IC50,[7],> 66 µM (inactive)
CCCCNC(=S)NNC(=O)c1cc(C)on1,EC50,[4],> 300 µM (not active)
same,EC50,[5],> 300 µM (not active)
O=C(NCC1COc2ccccc2O1)C1CCN(S(=O)(=O)c2cccc3nsnc23)CC1 (stereo not drawn),AC50,Cytochrome P450 2C9,inconclusive
CC1CC2(CCCCC2)Nc2ccc3ccccc3c21 (stereo not drawn),EC50,[1],> 260 µM (inactive)
N#Cc1cc(N)ccc1Sc1ccc(Cl)cc1,AC50,Cytochrome P450 2C9,inconclusive
Cc1ccc(-[n+]2c(-c3ccccc3)cn3c2CCC3)cc1,AC50,INS1,2.83 µM (active)
same,EC50,[2],> 150 µM (inconclusive)
same,EC50,[3],> 38 µM (not active)
Cc1cc(NC(=O)c2ccc(S(=O)(=O)N(C)C)cc2)n(-c2ccccn2)n1,AC50,Cytochrome P450 2C9,inconclusive
N#Cc1c(-c2ccccc2Cl)c2c([nH]c1=O)-c1ccccc1OC2,EC50,[4],> 300 µM (inconclusive)
same,EC50,[5],38.8 µM (active)
Cn1cc(C(=O)C(=O)N[C@H]2CN3CCC2CC3)c2ccccc21,AC50,Cytochrome P450 2C9,inconclusive
Oc1ccc(/N=C/c2cc(Br)c(N3CCOCC3)o2)cc1,IC50,Large T antigen,21.7 µM (active)
same,IC50,[8],42 µM (active)
Cc1cs/c(=N\N=C\c2ccc(O)cc2)n1Cc1ccco1,IC50,Large T antigen,25.5 µM (active)
same,IC50,[8],28.8 µM (active)
Cc1c(C)c2c(c(C)c1O)CC[C@@](C)(CCC[C@@H](C)CCC[C@@H](C)CCCC(C)C)O2,AC50,Cytochrome P450 2C19,inconclusive
same,AC50,Cytochrome P450 2C9,inconclusive

# Source: ChEMBL document CHEMBL1201862, “PubChem BioAssay data set” (2004)
